IC50 and inhibition data for five molecules are collected here from ChEMBL document CHEMBL3745666, “Syntheses and anti-inflammatory activity of azamollugin derivatives” (Bioorg Med Chem Lett, 2016).

This test has as its system RAW264.7. The test is described as follows: Antiinflammatory activity in mouse RAW264.7 cells assessed as inhibition of LPS-induced NO production compound pretreated for 1 hr followed by addition of 100 ng/ml LPS for 24 hrs by griess method. In kind it is functional, cell-based.
Consider `COC(=O)C1=C2C=CC(C)(C)N=C2c2ccccc2C1=O`, for which the concentration for half-maximal inhibition (IC50) is 0.34 µM and the inhibition result is “Dose-dependent effect”. Regarding `CNC(=N)NCCC[C@H](N)C(=O)O` [TILARGININE], the IC50 came out at 73.3 µM.

Regarding `COC(=O)c1c(O)c2ccccc2c2ncccc12`, the IC50 is above 50 µM. Turning to `COC(=O)C1=C2C=CC(C)(C)OC2(O)c2ccccc2C1=O` (stereo unspecified), the IC50 was 1.3 µM. As to `COC(=O)c1c(O)c2ccccc2c2nc(C)ccc12`, the IC50 was above 50 µM.
